Values joined by “and” are separate entries in the source; they are usually repeats but may differ in a detail not shown here. Equal entries are not always repeated. “Also recorded” adds a separate entry of the source. Where two headings read alike, the source gives them in different places.
How the values were obtained:
[1] = target: T1, KCNQ5 (Homo sapiens, UniProt Q9NR82); assay: TEVC of homomeric KCNQ5 expressed in Xenopus oocytes; format: cell-based; details: dose response
Description: (§1) We generated cRNA transcripts encoding human KCNQ1, KCNQ2, KCNQ3, KCNQ4, KCNQ5 or GLRA1 (NM_001146040) (GenScript, Piscataway, NJ, USA) by in vitro transcription using the T7 polymerase mMessage mMachine kit (Thermo Fisher Scientific), after vector linearization, from cDNA sub-cloned into plasmids incorporating Xenopus laevis β-globin 5′ and 3′ UTRs flanking the coding region to enhance translation and cRNA stability. We quantified cRNA by spectrophotometry. We generated mutant KCNQ2 and KCNQ3 cDNAs by site-directed mutagenesis using a QuikChange kit (Stratagene, San Diego, CA) and prepared the corresponding cRNAs as above. We injected defolliculated stage V and VI Xenopus laevis oocytes (Ecocyte Bioscience, Austin, TX and Xenoocyte, Dexter, MI) with KCNQ channel α subunit (5-20 ng) or GLRA1 (20 ng) cRNAs. We incubated the oocytes at 16 °C in Barth’s saline solution (Ecocyte Bioscience) containing penicillin and streptomycin, with daily washing, for 2–5 days prior to two-electrode voltage-clamp (TEVC) recording.
(§2) We performed TEVC at room temperature using an OC-725C amplifier (Warner Instruments, Hamden, CT) and pClamp10 software (Molecular Devices, Sunnyvale, CA) 2–5 days after cRNA injection as described in the section above. For recording, oocytes were placed in a small-volume oocyte bath (Warner) and viewed them with a dissection microscope. Chemicals were sourced from Sigma, Matrix Scientific and Santa Cruz. […] All stock solutions were diluted in bath solution on the day of experiments. KCNQ2/3 channel activation was screened for using either 30 µM or 100 µM concentrations of each of the six compounds, then dose responses were conducted as appropriate. […] Currents were recorded in response to voltage pulses between −120 or −80 mV and + 40 mV at 20 mV intervals from a holding potential of −80 mV, to yield current-voltage relationships, current magnitude, and for quantifying activation rate. We analyzed data using Clampfit (Molecular Devices) and Graphpad Prism software (GraphPad, San Diego, CA, USA); values are stated as mean ± SEM. […]

[2] = target: T2, KCNQ2/3 (Homo sapiens, UniProt O43525+O43526); assay: TEVC of KCNQ2/3 channels expressed in Xenopus oocytes; format: cell-based; details: TEVC in oocytes; for EC50: shift in voltage dependence of activation (ΔV0.5act)
T2 sequence (O43525 whole entry): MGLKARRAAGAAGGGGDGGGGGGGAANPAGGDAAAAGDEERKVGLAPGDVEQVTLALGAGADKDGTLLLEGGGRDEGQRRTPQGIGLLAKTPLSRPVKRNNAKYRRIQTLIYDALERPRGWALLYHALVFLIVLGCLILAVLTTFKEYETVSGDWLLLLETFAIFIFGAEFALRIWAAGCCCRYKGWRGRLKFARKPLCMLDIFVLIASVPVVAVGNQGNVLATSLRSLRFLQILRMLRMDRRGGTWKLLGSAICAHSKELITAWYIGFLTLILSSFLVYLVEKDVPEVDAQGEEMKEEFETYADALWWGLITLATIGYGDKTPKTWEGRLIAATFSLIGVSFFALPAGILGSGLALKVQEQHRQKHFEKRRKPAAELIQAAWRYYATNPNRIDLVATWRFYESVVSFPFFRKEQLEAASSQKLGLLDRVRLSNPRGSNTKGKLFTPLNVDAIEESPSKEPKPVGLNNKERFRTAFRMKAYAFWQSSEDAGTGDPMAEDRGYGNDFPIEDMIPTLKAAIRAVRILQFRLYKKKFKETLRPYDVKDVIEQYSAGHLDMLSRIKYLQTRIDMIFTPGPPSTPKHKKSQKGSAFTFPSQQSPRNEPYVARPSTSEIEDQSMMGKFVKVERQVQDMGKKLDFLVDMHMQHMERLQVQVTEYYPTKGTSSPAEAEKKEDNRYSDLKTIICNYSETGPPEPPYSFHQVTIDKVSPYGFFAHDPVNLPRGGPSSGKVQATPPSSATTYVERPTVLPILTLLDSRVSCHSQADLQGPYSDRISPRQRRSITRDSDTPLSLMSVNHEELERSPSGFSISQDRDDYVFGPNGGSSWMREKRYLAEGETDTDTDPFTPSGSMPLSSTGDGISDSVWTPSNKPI
T2 sequence (O43526 whole entry): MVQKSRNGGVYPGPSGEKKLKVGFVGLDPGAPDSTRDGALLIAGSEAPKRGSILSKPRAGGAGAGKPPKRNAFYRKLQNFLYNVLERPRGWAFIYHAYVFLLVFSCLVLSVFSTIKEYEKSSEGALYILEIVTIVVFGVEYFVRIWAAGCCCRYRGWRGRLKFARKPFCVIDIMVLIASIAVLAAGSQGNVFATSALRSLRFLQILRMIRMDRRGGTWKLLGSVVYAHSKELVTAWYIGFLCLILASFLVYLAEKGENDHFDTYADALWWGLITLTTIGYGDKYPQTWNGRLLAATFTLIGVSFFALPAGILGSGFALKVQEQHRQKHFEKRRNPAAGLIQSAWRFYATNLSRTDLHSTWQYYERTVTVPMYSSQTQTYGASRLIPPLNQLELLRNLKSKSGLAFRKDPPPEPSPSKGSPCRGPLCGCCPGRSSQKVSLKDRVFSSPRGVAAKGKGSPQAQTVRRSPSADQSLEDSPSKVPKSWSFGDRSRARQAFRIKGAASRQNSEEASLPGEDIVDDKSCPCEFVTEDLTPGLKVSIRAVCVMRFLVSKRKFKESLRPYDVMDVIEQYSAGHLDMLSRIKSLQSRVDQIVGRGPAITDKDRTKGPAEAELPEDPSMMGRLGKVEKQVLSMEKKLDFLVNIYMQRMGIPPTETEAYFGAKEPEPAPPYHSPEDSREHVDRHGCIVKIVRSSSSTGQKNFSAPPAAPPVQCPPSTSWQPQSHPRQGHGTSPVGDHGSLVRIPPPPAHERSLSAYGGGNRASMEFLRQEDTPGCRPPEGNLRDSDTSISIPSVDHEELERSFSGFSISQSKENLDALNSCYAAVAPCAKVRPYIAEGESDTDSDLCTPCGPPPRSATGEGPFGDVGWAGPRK
Description: as §1, with “We generated mutant KCNQ2 and KCNQ3 cDNAs by site-directed mutagenesis using a QuikChange kit (Stratagene, San Diego, CA) and prepared the corresponding cRNAs as above.” left out
(§3) For recording, oocytes were placed in a small-volume oocyte bath (Warner) and viewed them with a dissection microscope. Chemicals were sourced from Sigma, Matrix Scientific and Santa Cruz. […] All stock solutions were diluted in bath solution on the day of experiments. KCNQ2/3 channel activation was screened for using either 30 µM or 100 µM concentrations of each of the six compounds, then dose responses were conducted as appropriate. Bath solution was (in mM): 96 NaCl, 4 KCl, 1 MgCl2, 1 CaCl2, 10 HEPES (pH 7.6). Compounds were introduced into the oocyte recording bath by gravity perfusion at a constant flow of 1 ml per minute for 3 min prior to recording. Pipettes were of 1–2 MΩ resistance when filled with 3 M KCl. Currents were recorded in response to voltage pulses between −120 or −80 mV and + 40 mV at 20 mV intervals from a holding potential of −80 mV, to yield current-voltage relationships, current magnitude, and for quantifying activation rate. We analyzed data using Clampfit (Molecular Devices) and Graphpad Prism software (GraphPad, San Diego, CA, USA); values are stated as mean ± SEM. We plotted raw or normalized tail currents versus prepulse voltage and fitted with a single Boltzmann function:1 g=(A1−A2)/1+exp(V12−V)∕VS+A2, where g is the normalized tail conductance, A1 is the initial value at −∞, A2 is the final value at +∞, V1/2 is the half-maximal voltage of activation and Vs the slope factor. Activation, deactivation, wash-in and washout kinetics were fitted with single exponential functions to yield a τ value.

[3] = target: T3, KCNQ1 (Homo sapiens, UniProt P51787); assay: TEVC of homomeric KCNQ1 expressed in Xenopus oocytes; format: cell-based
Description: as §1, §2

[4] = target: T4, KCNQ2 (Homo sapiens, UniProt O43526); assay: TEVC of homomeric KCNQ2 expressed in Xenopus oocytes; format: cell-based
Description: as §1, with “We generated mutant KCNQ2 and KCNQ3 cDNAs by site-directed mutagenesis using a QuikChange kit (Stratagene, San Diego, CA) and prepared the corresponding cRNAs as above.” left out
as §3

[5] = target: T5, KCNQ3* (Homo sapiens, UniProt O43525, A315T); assay: TEVC of homomeric KCNQ3* (A315T KCNQ3 mutant) expressed in Xenopus oocytes; format: cell-based; details: dose response
Description: We next validated the in silico predictions using two-electrode voltage clamp of homomeric neuronal KCNQ2-5 channel isoforms expressed in Xenopus laevis oocytes. […] As in previous studies[8],[10], we used the A315T KCNQ3 mutant (KCNQ3*) that ensures large enough currents to accurately quantify voltage dependence and pharmacology of homomeric KCNQ3[16].
as §1
We performed TEVC at room temperature using an OC-725C amplifier (Warner Instruments, Hamden, CT) and pClamp10 software (Molecular Devices, Sunnyvale, CA) 2–5 days after cRNA injection as described in the section above. For recording, oocytes were placed in a small-volume oocyte bath (Warner) and viewed them with a dissection microscope. Chemicals were sourced from Sigma, Matrix Scientific and Santa Cruz. […] All stock solutions were diluted in bath solution on the day of experiments. KCNQ2/3 channel activation was screened for using either 30 µM or 100 µM concentrations of each of the six compounds, then dose responses were conducted as appropriate. Bath solution was (in mM): 96 NaCl, 4 KCl, 1 MgCl2, 1 CaCl2, 10 HEPES (pH 7.6). Compounds were introduced into the oocyte recording bath by gravity perfusion at a constant flow of 1 ml per minute for 3 min prior to recording. Pipettes were of 1–2 MΩ resistance when filled with 3 M KCl. Currents were recorded in response to voltage pulses between −120 or −80 mV and + 40 mV at 20 mV intervals from a holding potential of −80 mV, to yield current-voltage relationships, current magnitude, and for quantifying activation rate. We analyzed data using Clampfit (Molecular Devices) and Graphpad Prism software (GraphPad, San Diego, CA, USA); values are stated as mean ± SEM. […]

[6] = target: KCNQ4 (Homo sapiens, UniProt P56696); assay: TEVC of homomeric KCNQ4 expressed in Xenopus oocytes; format: cell-based; details: for effects on KCNQ4: dose response
Description: as §1
as §3, with “We performed TEVC at room temperature using an OC-725C amplifier (Warner Instruments, Hamden, CT) and pClamp10 software (Molecular Devices, Sunnyvale, CA) 2–5 days after cRNA injection as described in the section above. For” for “For”

[7] = target: T5, KCNQ3*; set-up: method as in PMID 29748663; details: cited from earlier work
[8] = target: T1, KCNQ5; set-up: method as in PMID 29748663; details: cited from earlier work
[9] = target: T5, KCNQ3*; assay: [3H]GABA binding and competition, oocytes expressing KCNQ3*
Description: (§4) Oocytes were then washed four times in 16 °C ND96, transferred to individual wells in a 96 well plate and lysed in 0.2% SDS in ND96. Each oocyte lysate was transferred to a scintillation vial containing 5 ml Cytoscint scintillation cocktail fluid (MP Biomedicals, Santa Ana, CA). Vials were capped, shaken, and then allowed to sit at room temperature for at least 30 min before scintillation counting in a Beckmann Coulter LS6500 liquid scintillation counter.

[10] = target: T4, KCNQ2; set-up: method as in PMID 30021858; details: cited from earlier work
[11] = target: T2, KCNQ2/3
Description: as §4

[12] = target: T6, GLRA1 (Homo sapiens, UniProt P23415); assay: TEVC of glycine receptor GLRA1 expressed in Xenopus oocytes; format: cell-based; details: 1 mM, compound alone
T6 sequence (P23415 29-457): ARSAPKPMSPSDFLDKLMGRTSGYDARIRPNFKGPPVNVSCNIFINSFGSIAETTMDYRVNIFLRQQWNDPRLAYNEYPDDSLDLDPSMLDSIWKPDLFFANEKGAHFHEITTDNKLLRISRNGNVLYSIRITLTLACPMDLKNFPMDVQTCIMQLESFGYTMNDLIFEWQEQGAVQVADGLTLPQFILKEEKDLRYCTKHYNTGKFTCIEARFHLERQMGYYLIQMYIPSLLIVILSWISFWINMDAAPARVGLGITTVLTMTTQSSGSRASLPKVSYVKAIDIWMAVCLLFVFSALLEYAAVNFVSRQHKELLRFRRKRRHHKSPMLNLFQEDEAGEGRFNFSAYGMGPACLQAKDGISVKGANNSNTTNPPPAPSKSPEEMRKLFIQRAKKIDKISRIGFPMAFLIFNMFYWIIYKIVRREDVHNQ
Description: as §1
as §3, with “We performed TEVC at room temperature using an OC-725C amplifier (Warner Instruments, Hamden, CT) and pClamp10 software (Molecular Devices, Sunnyvale, CA) 2–5 days after cRNA injection as described in the section above. For” for “For”

[13] = target: T7, KCNQ3*-R242A (Homo sapiens, UniProt O43525, A315T/R242A); assay: TEVC of homomeric KCNQ3*-R242A; format: cell-based; details: 100 µM
T7 sequence (O43525 1-872 R242A/A315T): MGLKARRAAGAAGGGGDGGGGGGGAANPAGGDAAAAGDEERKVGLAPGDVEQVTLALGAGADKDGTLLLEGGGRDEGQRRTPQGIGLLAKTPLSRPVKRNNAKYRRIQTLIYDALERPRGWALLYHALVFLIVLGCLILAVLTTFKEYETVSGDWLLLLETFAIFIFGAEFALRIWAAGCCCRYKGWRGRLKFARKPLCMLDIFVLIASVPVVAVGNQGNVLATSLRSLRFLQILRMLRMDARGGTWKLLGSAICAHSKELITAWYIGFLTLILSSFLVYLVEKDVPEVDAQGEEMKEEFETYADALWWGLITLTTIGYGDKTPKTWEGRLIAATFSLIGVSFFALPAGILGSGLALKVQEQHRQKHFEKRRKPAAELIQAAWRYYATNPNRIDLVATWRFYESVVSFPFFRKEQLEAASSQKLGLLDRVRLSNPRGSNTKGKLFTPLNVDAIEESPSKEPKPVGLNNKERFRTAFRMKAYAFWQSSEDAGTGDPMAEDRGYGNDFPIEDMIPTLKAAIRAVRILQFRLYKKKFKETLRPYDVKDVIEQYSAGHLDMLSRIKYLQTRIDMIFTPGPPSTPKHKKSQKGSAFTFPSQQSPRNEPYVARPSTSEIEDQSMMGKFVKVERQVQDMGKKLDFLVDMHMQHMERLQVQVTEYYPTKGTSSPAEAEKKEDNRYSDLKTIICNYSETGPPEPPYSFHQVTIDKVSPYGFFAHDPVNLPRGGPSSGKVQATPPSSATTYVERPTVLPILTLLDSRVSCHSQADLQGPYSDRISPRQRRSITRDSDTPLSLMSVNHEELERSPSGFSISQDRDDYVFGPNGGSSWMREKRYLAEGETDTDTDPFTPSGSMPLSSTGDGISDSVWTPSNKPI
Description: We generated cRNA transcripts encoding human KCNQ1, KCNQ2, KCNQ3, KCNQ4, KCNQ5 or GLRA1 (NM_001146040) (GenScript, Piscataway, NJ, USA) by in vitro transcription using the T7 polymerase mMessage mMachine kit (Thermo Fisher Scientific), after vector linearization, from cDNA sub-cloned into plasmids incorporating Xenopus laevis β-globin 5′ and 3′ UTRs flanking the coding region to enhance translation and cRNA stability. We quantified cRNA by spectrophotometry. We generated mutant KCNQ2 and KCNQ3 cDNAs by site-directed mutagenesis using a QuikChange kit (Stratagene, San Diego, CA) and prepared the corresponding cRNAs as above. […]
We performed TEVC at room temperature using an OC-725C amplifier (Warner Instruments, Hamden, CT) and pClamp10 software (Molecular Devices, Sunnyvale, CA) 2–5 days after cRNA injection as described in the section above. […] Currents were recorded in response to voltage pulses between −120 or −80 mV and + 40 mV at 20 mV intervals from a holding potential of −80 mV, to yield current-voltage relationships, current magnitude, and for quantifying activation rate. We analyzed data using Clampfit (Molecular Devices) and Graphpad Prism software (GraphPad, San Diego, CA, USA); values are stated as mean ± SEM. […]

[14] = target: T3, KCNQ1; details: cited from earlier work

SMILES: NC(C(=O)O)c1ccc(F)cc1 (stereo not drawn) [4FPG, 4-(fluorophenyl)glycine]
- effects on KCNQ5 [1]: no effects
- EC50 ([2]; read-out: EC50, KCNQ2/3 activation): 0.061 ± 0.042 µM
- KCNQ1 activation and deactivation rates ([3]; 30 µM): slowed KCNQ1 deactivation but did not speed its activation
- EC50 ([3]; ΔV0.5act, read-out: EC50, KCNQ1 activation): 0.09 ± 0.02 µM
- KCNQ2 activation and deactivation rates ([4]; 4FPG 30 µM, 2FPG 100 µM): speeded KCNQ2 and KCNQ4 activation and slowed their deactivation
- EC50 ([4]; wild-type KCNQ2, ΔV0.5act, read-out: EC50, KCNQ2 activation): 0.069 ± 0.031 µM
- effects on KCNQ3* [5]: no effects
- KCNQ4 activation and deactivation rates ([6]; 30 µM): speeded KCNQ2 and KCNQ4 activation and slowed their deactivation
- EC50 ([6]; ΔV0.5act, read-out: EC50, KCNQ4 activation): 0.049 ± 0.012 µM

SMILES: NCCCC(=O)O [GABA, γ-aminobutyric acid, reference compound]
- activation of KCNQ3 [7]: activate only KCNQ3 and KCNQ5
- activation of KCNQ5 [8]: activate only KCNQ3 and KCNQ5
- [3H]GABA binding to KCNQ3* [9]: bound
- effects on KCNQ4 [6]: unable to open

SMILES: NCC1(CC(=O)O)CCCCC1 [gabapentin]
- activation of KCNQ3 [7]: activate only KCNQ3 and KCNQ5
- activation of KCNQ2 [10]: not KCNQ2
- activation of KCNQ5 [8]: activate only KCNQ3 and KCNQ5

SMILES: NCC(=O)O [glycine, reference compound]
- effects on KCNQ5 [1]: no effects
- binding of tritiated ligand to wild-type KCNQ2/3 ([11]; CPM over 30 min): did not
- inhibition of GABA binding to wild-type KCNQ2/3 ([11]; cold glycine 100 µM): did not inhibit GABA binding
- activation of KCNQ2/3 [2]: nor does it activate KCNQ2/3; also recorded: no effect
- effects on KCNQ2 ([4]; dose response): unable to open
- effects on KCNQ3* [5]: no effects
- activation of GLRA1 [12]: robust activation
- effects on KCNQ4 [6]: unable to open

SMILES: CCOC(=O)Nc1ccc(NCc2ccc(F)cc2)cc1N [retigabine, reference compound]
- EC50 ([2]; EC50, KCNQ2/3 activation): 6.9 µM and 6.87 µM
- effect on nonfunctional KCNQ3*-R242A [13]: awakened neither by 3FMSG nor retigabine
- activation of KCNQ1 [14]: does not activate KCNQ1

— paper PMC6825221, “In silico re-engineering of a neurotransmitter to activate KCNQ potassium channels in an isoform-specific manner” (Communications Biology, 2019)
